Values quoted from earlier work as cited in US20170333404A1, “IMPROVED FORMULATIONS OF VEMURAFENIB AND METHODS OF MAKING THE SAME” (DISPERSOL TECHNOLOGIES, LLC, priority 2014, published 2017).

What was measured:
[1] = tested on: BRAFV600E/K mutant advanced or malignant melanoma; settings: Trametinib arm
[2] = compared to the crystalline form
V600E mutation in b-raf = settings: patients with a V600E mutation in b-raf
[3] = not given; remark: listed apart in the source
melanoma = settings: at 5 years, adjuvant treatment

## CC(=O)Nc1cccc(-n2c(=O)n(C3CC3)c(=O)c3c(Nc4ccc(I)cc4F)n(C)c(=O)c(C)c32)c1 [Trametinib]
[1]
  Grade 3 adverse effect: hypertension: 12%
  Grade 3 adverse effect: rash: 7%

## CCCS(=O)(=O)Nc1ccc(F)c(C(=O)c2c[nH]c3ncc(-c4ccc(Cl)cc4)cc23)c1F [amorphous form of vemurafenib, vemurafenib]
[2]
  solubility in water: improved solubility in water

## CCCS(=O)(=O)Nc1ccc(F)c(C(=O)c2c[nH]c3ncc(-c4ccc(Cl)cc4)cc23)c1F [vemurafenib]
BRIM-2, 132 patients
  arthralgia, patients: 58%
  photosensitivity, patients: 52%
  skin rash, patients: 52%
BRIM-2, to manage side effects
  patients in whom dose modification was necessary: 45%
Advanced melanoma; group of 16 patients with advanced melanoma
  patients with reduced numbers of cancer cells: over half
Advanced melanoma; treated group vs control group
  median increased survival time over the control group: 6 months
V600E mutation in b-raf
  patients showing partial to complete regression: ~80%
[3]; at MTD of 960 mg twice a day
  patients with skin lesions that may need surgical removal: 31%
[3]; patients
  maximum tolerated dose (MTD): 960 mg twice a day
Melanoma cell lines; melanoma cell lines
  programmed cell death: cause programmed cell death
Melanoma cell lines; melanoma cells without BRAF V600E/V600K mutations
  inhibition of melanoma cells: not inhibited

## interferon
melanoma
  increase in survival: 3%
